Test results: US8759264B2, “Water-based hydraulic fluids comprising dithio-di(aryl carbolic acids)” (Clarient Finance (BVI) Limited, priority 2008, dated 2014)
Like-named read-outs stand apart in the source and are kept apart here.

Key:
Algal = Algal toxicity; conditions: in vivo
[1] = Biodegradability (OECD 306)
Fish = Fish toxicity; conditions: in vivo

Compound | Algal toxicity (EC50) (Algal) [µg/mL] | Biodegradability (OECD 306) ([1]; OECD 306) [%] | Fish toxicity (LC50) (Fish) [µg/mL] | Biodegradability (OECD 306) [1] [%]
S=c1[nH]c2ccccc2s1 [Mercaptobenzothiazole] | <1 | <20 | <10 | –
O=C(O)c1ccccc1SSc1ccccc1C(=O)O [Dithiodi(benzoic acid), o-dithiodibenzoic acid] | >100 | >30 | >100 | –
N-Aminoethyloleyl-imidazoline | <1 | – | <10 | >60
